Experimental data taken from patent US4927659A, “Tris-hydroxymethyl lower alkane esters as fat mimetics” (Nabisco Brands, Inc., priority 1989, dated 1990).

Columns and labels:
[1] = in vivo animal feeding study for caloric availability (body weight gain); parameters: species or system male Sprague-Dawley rats; conditions: rats, diet of 50% fort and 21% test compound, 14 days
Description: This example illustrates how the novel fat mimetics of this invention are screened for caloric availability by a carefully controlled in vivo animal feeding study.
An experimental relationship between total calories ingested and animal body weight gain is established by monitoring the body weight gain associated with consumption of a nutritionally balanced diet containing varying concentrations of a reference substance such as corn oil which has a known caloric availability. Correlations between total calories ingested and body weight gain are excellent (r=0.99).
Caloric availability of an unknown substance is evaluated by substituting a specific weight of the unknown substance for the reference substance and observing the body weight gain. The gain in body weight is equated to a total number of calories using the correlation previously established for the reference data. The estimated number of calories ingested are divided by the weight of unknown substance to give the apparent calories per gram for the unknown substance. Generally speaking, in these bioavailability studies, the degree of perianal pelt soiling correlates with reduced bioavailability.
The test animals are six-week-old male Sprague-Dawley rats obtained from the Portage, Mich. facility of the Charles River Laboratories, Inc. After acclimation for 15 days, the test duration is 14 days. […]

[2] = system: porcine pancreatic lipase; assay: in vitro digestibility: hydrolysis by pancreatic lipase (TLC densitometry); format: in vitro ADME; conditions: in 10 minutes, triglyceride control, 37° C., pH 7.1
Experimental: This example outlines the procedure for estimating the in vitro digestibility of the synthetic fat mimetics of this invention.
1. Buffer: A pH 7.1 phosphate buffer is prepared by dissolving 6.8 g. KH2 PO4 in 1 L. of millipore filtered water (to yield 0.05 M phosphate). Fifty mg. Ca(NO3)2 and 5.0 g. cholic acid (Na salt, an ox bile isolate from Sigma) are added to give 300 microM Ca^++ and 0.5 % cholic acid in 0.05 M phosphate. The pH is adjusted to approximately 7.1 with solid NaOH. Several drops of Baker "Resi-analyzed" toluene are added to prevent bacterial growth during storage at 3-5° C.
2. Lipase: About 15 mg./mL commercial porcine pancreatic lipase from U.S. Biochemical Corporation is dissolved in buffer.
3. Substrates and Standards: A 1.0 mL volumetric flask is charged with an amount of lipid substrate (test substance or standard) calculated to give a concentration of 200 nanomoles per microliter in Baker "Resi-analyzed" toluene. (The proper concentration may be approximated by […] the molecular weight of the lipid in question, dividing by 10, and diluting to the mark; this yields about 200 nanomoles per microliter.) This preparation affords the substrate to be used in the hydrolysis reactions. […]

SMILES | caloric availability (kcal/gram upon being metabolized) [1] | hydrolysis by pancreatic lipase [2]
CCCCCCCC/C=C\CCCCCCCC(=O)OCC(C)(COC(=O)CCCCCCC/C=C\CCCCCCCC)COC(=O)CCCCCCC/C=C\CCCCCCCC [Example 1, 1,1,1-Tris-hydroxymethylethane trioleate] | about 3.3 kcal/gram | 
CCCCCCCC/C=C\CCCCCCCC(=O)OCC(COC(=O)CCCCCCC/C=C\CCCCCCCC)OC(=O)CCCCCCC/C=C\CCCCCCCC [triolein] |  | substantially hydrolyzed
